# Patent USRE31617E, “Optionally substituted 1,2,3,5-tetrahydroimidezo(2,1-b)-quinazolin-2-ones and 6(H)-1,2,3,4-tetrahydropyimido(2,1-b)quinazolin-2-ones” (Bristol-Myers Company, priority 1982, dated 1984)
# Columns and labels:
# skin = test: Handling hazard observed in synthesis; conditions: observation in synthesis
# [1] = tested on: genetically hypertensive rats; test: Blood pressure change after oral dosing (intra-arterial cannula and transducer); format: in vivo, rat; conditions: P.O. 50 mg./kg.; for change in vivo at 50 mg/kg: Rattus norvegicus, po, + increase, - decrease in b.p., tested as hydrochloride salts
# Description: The blood pressure of unanesthetized rats and dogs was measured directly by means of a transducer attached to an intra-arterial cannula and in anesthetized dogs by a mercury manometer attached to a carotid cannula.
# The compounds of the instant invention were tested as the hydrochloride salts by the above method in genetically hypertensive rats in doses of 50 mg./kg. orally.
# [2] = tested on: rats, dogs, cats and rabbits; conditions: prior art; cited from earlier work
SMILES,change in vivo at 50 mg/kg [1] [%],other results
Cc1cccc([N+](=O)[O-])c1CCl [2-Methyl-6-nitrobenzyl chloride],,lachrymator and skin irritant (skin): strong lachrymator and skin irritant
COc1ccc2c(c1)CN1CCC(=O)NC1=N2 [Compound 26],19 ± 6,
COc1cc2c(cc1OC)N=C1NC(=O)CCN1C2 [Compound 28],-7 ± 2,
COc1cccc2c1N=C1NC(=O)CCN1C2 [Compound 27],-1 ± 4,
"O=C1CCN2Cc3cc(Br)ccc3N=C2N1 [Compound 21, 8-Bromo-6-[H]-1,2,3,4-tetrahydropyrimido[2,1-b]quinazolin-2-one]",,Blood Pressure % Change Rats column: toxicity in words [1]: Toxic
COc1cccc2c1CN1CCC(=O)NC1=N2 [Compound 25],5 ± 3,
c1ccc2c(c1)CN1CCNC1=N2,,antihypertensive activity [2]: potent antihypertensive activity
